Laboratory results taken from patent US20020090402A1, “Pharmaceutical composition against type I allergy and the preparation thereof” (priority 2000, published 2002).

Tested on: passive skin sensitization for the rats
Test: anti-allergic pharmacodynamics: passive skin sensitization of rats (anti-trichosanthes serum, Evans blue, 620 nm colorimetry)
Assay type: in vivo, Wistar male rats
Conditions: rat, 5 mg/Kg IV one minute before second sensitization
From the text: Research of anti-allergic pharmacodynamics of the pharmaceutical composition of the present invention
Wistar male rats with body weight of 100˜120 g were used, which were provided by the Experimental Animal Center of the Chinese Academy of Medical Sciences.
1. Tablets of this pharmaceutical composition obtained from Example 1 of this invention. It was made into a suspension with 0.5%CMC-Na.
2. Positive contrast medicament: disodium chromoglycate (produced by Shanghai Pharmaceutical Factory No. 5). It is dissolved with normal saline when it is used.
After the rats were divided in groups at random, they were lavaged and dosed with the above-mentioned pharmaceutical composition of this invention according to 6 g/Kg and 3 g/Kg, once a day, continuously for 10 days. After hair on their backs of all groups of animals was removed, said animals were sensitized for the first time with hypodermic injection with anti-trichosanthes serum. At the same time, the dosing groups took the pharmaceutical composition according to 6 g/Kg, two hours before the second sensitization. The positive contrast groups were dosed with IV of disodium chromoglycate in accordance of 5 mg/Kg, one minute before the second sensitization was made. All groups of animals were given with IV of 1% EVANSLAN (including trichosanthes protein of 1 mg/ml) in accordance with 1 mg/Kg for the second sensitization. […]

Compound: O=C([O-])c1cc(=O)c2c(OCC(O)COc3cccc4oc(C(=O)[O-])cc(=O)c34)cccc2o1.[Na+].[Na+] [Positive contrast, disodium chromoglycate]
- Inhibition rate: 78.2%
- OD value (X ± SD) (620 nm): 0.19 ± 0.11
